The values that follow come from patent US20250136610A1, “CRYSTALLINE FORMS OF TRILACICLIB AND TRILACICLIB SALTS” (TEVA PHARMACEUTICALS INTERNATIONAL GMBH, priority 2022, published 2025).

Common to all, as to assay type: physicochemical
The nature of series [1]: Storage stability at different relative humidities and temperatures, months (XRPD). How it is done:
(§1) X-ray diffraction was performed on X-Ray powder diffractometer: Bruker D8 Advance; CuKα radiation (λ=1.5418 Å); Lynx eye detector; laboratory temperature 22-25° C.; PMMA specimen holder ring with silicon low background. Prior to analysis, the samples were gently ground by means of mortar and pestle in order to obtain a fine powder. The ground sample was adjusted into a cavity of the sample holder and the surface of the sample was smoothed by means of a cover glass.
(§2) • Scan range: 2-40 degrees 2-theta; • Scan mode: continuous; • Step size: 0.05 degrees; • Time per step: 0.5 s; • Sample spin: 30 rpm; • Sample holder: PMMA specimen holder ring with silicon low background. • All X-Ray Powder Diffraction peak values are calibrated with regard to standard silicon spiking in the sample. ssNMR Method:
Samples of Trilaciclib citrate Form TCT3 were subjected to conditions of different relative humidities at different temperatures. XRPD analysis was performed on the samples after 2 months.
Form TCT3 of Trilaciclib citrate was also found to be stable for at least 2 months at 2-8° C. Moreover, Form TCT3 is stable for at least 3 months at room temperature and humidity.

Series [2] in a line: Grinding experiments (strong grinding and solvent drop grinding, XRPD). The following applies: 2 minutes. How it is done: as §1, §2
Samples of Trilaciclib citrate Form TCT3 were subjected to strong grinding, and to solvent drop grinding in isopropanol, ethanol and water. Grinding was carried out on the samples alone, or in the presence of ethanol or water. In these experiments, about 20 mg of the sample is placed in a mortar and ground with a pestle for 2 minutes. The solvent, when used, as added to the crystalline material before grinding, in a volume of 10 microliters.

Series [3] can be described thus: Stability under all tested stress conditions (summary statement). The following applies: strong grinding, pressure of 2 tons, up to 100% RH for 7 days, up to 100° C.
A short description of series [4]: Thermal stability (heating up to 100° C., XRPD). The following applies: heating 100° C., 30 minutes. As to the method:
as §1, §2
A sample of Trilaciclib citrate Form TCT3 was subjected to heating up to 100° C. for 30 minutes.

Structures can show the parent of a compound that is named as a salt.

With `CN1CCN(c2ccc(Nc3ncc4cc5n(c4n3)C3(CCCCC3)CNC5=O)nc2)CC1` [Trilaciclib citrate Form TCT3, Trilaciclib citrate salt], the “time for which the form is stable” value in series [1] (at 2-8° C.) is on record as “at least 2 months”; in series [1] (at room temperature and humidity), “at least 3 months”. Also, the XRPD analysis results in series [2] (solvent-drop grinding (ethanol), 10 microliters) is “No polymorphic conversion”; in series [2] (solvent-drop grinding (isopropanol), 10 microliters), “No polymorphic conversion”; in series [2] (solvent-drop grinding (water), 10 microliters), “No polymorphic conversion”; in series [2] (strong grinding, no solvent), “No polymorphic conversion”. The “stability under stress conditions” value in series [3] is listed as “stable under all tested stress conditions”. Also, in series [4], the “Result (XRPD analysis)” value is on record as “No polymorphic conversion”.
